Assay results taken from patent US20250270208A1, “BICYCLIC HETEROCYCLES AS MRGPRX2 ANTAGONISTS” (Incyte Corporation, priority 2023, published 2025).
pIC50: −log10 of the molar value.

Assays:
Type in all cases: cell-based
MRGPRX2 [1] = biological target: T1, MRGPRX2 (Homo sapiens, UniProt Q96LB1); assay: MRGPRX2 β-Arrestin assay; design: host or cells: PathHunter CHO-K1; conditions: PathHunter CHO-K1 MRGPRX2 β-Arrestin cell line; agonist Cortistatin 14 0.25 μM
T1 sequence (Q96LB1 1-330): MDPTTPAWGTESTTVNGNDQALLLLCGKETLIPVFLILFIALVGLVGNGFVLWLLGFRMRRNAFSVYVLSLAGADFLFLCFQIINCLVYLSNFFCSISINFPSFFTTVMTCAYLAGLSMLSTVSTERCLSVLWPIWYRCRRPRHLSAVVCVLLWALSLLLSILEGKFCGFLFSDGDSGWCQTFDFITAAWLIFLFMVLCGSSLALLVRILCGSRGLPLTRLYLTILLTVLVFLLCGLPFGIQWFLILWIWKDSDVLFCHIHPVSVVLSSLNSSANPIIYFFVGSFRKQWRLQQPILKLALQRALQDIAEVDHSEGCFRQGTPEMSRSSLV
Source text: This assay measures compound inhibition of β-Arrestin recruitment, which is part of the G protein-independent pathway that results from the ligand-activated GPCR phosphorylation by specific GPCR kinases. The PathHunter CHO-K1 MRPGRX2 β-Arrestin Cell line stably expressing ProLink tagged MRGPRX2 and Enzyme Acceptor Tagged β-Arrestin was purchased from Eurofins DiscoverX, (Fremont, CA).
The cells were maintained in culture medium from the Europhins DiscoverX Cell Culture Kit-107 which includes FBS, hygromycin B and G418. For the assay, the cells were harvested and were resuspended with Cell Plating Reagent 2 (Eurofins DiscoverX). Cells were added 10000 cells in 25 μL/well to a 384-well black cell culture plate (Greiner VWR, Radnor, PA) which contained 125 nL/well of compound at a selected serially diluted concentration range or DMSO. The plate was incubated at 37° C. with 5% CO2 for 1 h. 2 μL/well of agonist Cortistatin 14 was diluted in Protein Dilution Buffer, (Eurofins DiscoverX) for a final concentration of 0.25 μM, was added and the plate was incubated at 37° C. with 5% CO2 for 90 min. 14 μL/well of Detection Reagent Mix (PathHunter Detection Kit, Eurofins DiscoverX) was added to the plates and further incubated for 1 h in the dark. Plates were read on the PHERAstar microplate reader (BMG Labtech Cary, NC) measuring luminescence 0.1 to 1 s per well. Data was normalized using DMSO only wells and wells with high concentration of reference antagonist as controls. Compound IC50 curves were globally fitted with 3- or 4-parameter Hill equation in a Genedata Screener (Genedata Basel, Switzerland).

MRGPRX2 [2] = biological target: T1, MRGPRX2; assay: MRGPRX2 IP1 HTRF assay; design: host or cells: CHO-K1; conditions: CHO-K1 cells stably expressing human MRGPRX2; IP1 accumulation; agonist Cortistatin 14 1 μM
Procedure: This assay measures compound inhibition of myo-Inositol 1 phosphate (IP1) accumulation in CHO-K1 cells. Chinese hamster ovary (CHO-K1) cells stably expressing human MRGPRX2 were purchased from GenScript (Piscataway, NJ).
For the HTRF IP1 determination, an IP-One GqKit (Perkin Elmer Cisbio, Waltham, MA), which includes all reagents and buffers in this protocol, was used. The cells were maintained in culture medium (Ham's F-12K) containing 10% (v/v) FBS, and 200 μg/mL Zeocin. For the assay, the cells were harvested and resuspended in culture medium with 2% FBS and without Zeocin, then were passed through a 40 μm filter. Cells were added at 20000 cells in a 5 μL/well to a 384-well white small volume cell culture plate (Greiner VWR, Radnor, PA) which contained 50 nL/well of test compound serially diluted at a selected concentration range in DMSO. 5 μL/well of prepared 2× Stimulation Buffer 2 was then added to plates and was incubated at 37° C. with 5% CO2 for 1 h. 5 μL/well of agonist Cortistatin 14 (Bio-TechneR&D Systems, Minneapolis, MN) in 1× Stimulation Buffer 2, for a 1 μM final concentration, was then added to plates and incubated at 37° C. with 5% CO2 for 1 h. 6 μL/well of 1:20 diluted Detection Reagent Mix (d2 and Cryptate) was added to the plates and incubated for 1 h in the dark. Plates were read on the PHERAstar microplate reader (BMG Labtech Cary, NC) to determine the HTRF ratio of the acceptor and donor emission signals. The IP1 concentrations were calculated from a standard curve following the IP-One GQ kit instructions. Wells with DMSO only and wells with high concentration of reference antagonist were used as controls for normalization. Compound IC50 curves were globally fitted with 3- or 4-parameter Hill equation in a Genedata Screener (Genedata Basel, Switzerland).

MRGPRX2 [3] = biological target: T1, MRGPRX2; assay: MRGPRX2 FLIPR calcium mobilization assay; design: host or cells: CHO-K1; conditions: CHO-K1 cells stably expressing human MRGPRX2; Ca2+ release; agonist Cortistatin-14 at EC80
Procedure: Chinese hamster ovary (CHO-K1) cells stably expressing human MRGPRX2 were purchased from Genescript (Piscataway, NJ). The cells were maintained in culture medium (Ham's F-12K) containing 10% (v/v) FBS, 200 μg/mL Zeocin, 100 units/mL penicillin G and 100 μg/mL streptomycin (Life Technologies, Carlsbad, CA). For the assay, the cells were harvested and resuspended with culture medium without Zeocin before plating at 8000 cells per well in 20 μL in 384-well black clear bottom cell culture plates (VWR, Radnor, PA). After 24 hour culture at 37° C. and 5% CO2, the cells were loaded with 20 μL/well of calcium dye (FLIPR Calcium 6 Assay Kit, Molecular Devices, San Jose, CA) diluted in loading buffer (1× Hank's Balanced Salt Solution (HBSS), 5 mM probenecid, 20 mM 4-(2-hydroxyethyl)-1-piperazineethanesulfonic acid (HEPES), pH 7.4, VWR, Radnor, PA) followed with 45 min incubation at 37° C. and 40 min. at r.t. in the dark. Cells were then treated with the addition of 10 uL/well test compounds with a range of increasing concentrations diluted in the assay buffer (1×HBSS, 20 mM HEPES, pH 7.4, VWR, Radnor, PA) with FLIPR Penta (Molecular Devices. San Jose, CA) and incubated for 30 min. at r.t. Ca^2+ release was measured with FLIPR Penta with 10 s basal fluorescence measurement, then 12.5 μL of 5× agonist Cortistatin-14 (Tocris, Minneapolis, MN) at final concentration corresponding to the EC80 were added followed with continued fluorescence signal monitoring for an additional 110 s. The base line adjusted (median of first 10 s base line) max value of the Relative Fluorescence Unit (RFU) was plotted against compound concentrations. Wells with no compound were served as the positive controls, and wells with high concentration of reference antagonist were used as negative controls. IC50 curves were globally fitted with 3- or 4-parameter Hill equation in a Genedata Screener (Genedata Basel, Switzerland).

pIC50 (MRGPRX2 [1])	pIC50 (MRGPRX2 [2])	pIC50 (MRGPRX2 [3])	SMILES
7.00 to 10.00	7.00 to 10.00	7.00 to 10.00	FC(F)(F)c1cc(N[C@H]2CCC[C@@H](Nc3ncnc4ncccc34)C2)c2cc(Cl)ccc2n1 [Example 26, (1S,3R)-N^1-(6-Chloro-2-(trifluoromethyl)quinolin-4-yl)-N^3-(pyrido[2,3-d]pyrimidin-4-yl)cyclohexane-1,3-diamine]
7.00 to 10.00	7.00 to 10.00	7.00 to 10.00	Fc1ccc2nc(C(F)(F)F)cc(N[C@H]3CCC[C@@H](Nc4nnc5ccccn45)C3)c2c1 [Example 33, (1R,3S)-N^1-([1,2,4]Triazolo[4,3-a]pyridin-3-yl)-N^3-(6-fluoro-2-(trifluoromethyl)quinolin-4-yl)cyclohexane-1,3-diamine]
7.00 to 10.00	7.00 to 10.00	7.00 to 10.00	FC(F)(F)c1cc(N[C@H]2CCC[C@@H](Nc3nnc4n3CCCC4)C2)c2cc(Cl)ccc2n1 [Example 35, (1S,3R)-N^1-(6-Chloro-2-(trifluoromethyl)quinolin-4-yl)-N^3-(5,6,7,8-tetrahydro-[1,2,4]triazolo[4,3-a]pyridin-3-yl)cyclohexane-1,3-diamine]
7.00 to 10.00	7.00 to 10.00	7.00 to 10.00	FC(F)(F)c1cc(N[C@H]2CCC[C@@H](Nc3nnc4n3CCOC4)C2)c2cc(Cl)ccc2n1 [Example 36, (1S,3R)-N^1-(6-Chloro-2-(trifluoromethyl)quinolin-4-yl)-N^3-(5,6-dihydro-8H-[1,2,4]triazolo[3,4-c][1,4]oxazin-3-yl)cyclohexane-1,3-diamine]
